Among the data in PubChem BioAssay AID256 (DTP/NCI, 2004) are T/C values, retold here.

Where “and” joins values, the source holds several entries; their conditions need not be identical. Identical values can stand only once. Toxic doses and inconclusive results are not listed.

In the experiment the test system is CD2F1 mice, L1210 leukemia ip, survival T/C. The experiment is described as follows: NCI In Vivo Anticancer Drug Screen. Data for tumor model L1210 Leukemia (intraperitoneal) in CD2F1 (CDF1) mice. The settings on record: endpoint: mean survival time, higher = longer survival. The essentials:
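Activity against a transplanted murine tumor was judged by comparing the compound group with a vehicle group. The outcome in the treated animals was divided by that in the controls.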

[1] abbreviates: dose: 12.5 mg/kg/injection, schedule: Q01DX009 (ip), vehicle: saline with Tween-80.
[2] abbreviates: dose: 25.0 mg/kg/injection, schedule: Q01DX009 (ip), vehicle: saline with Tween-80.
Where [3] appears, read: dose: 50.0 mg/kg/injection, schedule: Q01DX009 (ip), vehicle: saline with Tween-80.
The mark [4] stands for this setting: dose: 300.0 mg/kg/injection, schedule: Q01DX001 (ip), vehicle: saline.
The mark [5] stands for this setting: dose: 100.0 mg/kg/injection, schedule: Q04DX003 (ip), vehicle: saline.
The mark [6] stands for this setting: dose: 200.0 mg/kg/injection, schedule: Q04DX003 (ip), vehicle: saline.
Setting [7] is: dose: 400.0 mg/kg/injection, schedule: Q04DX003 (ip), vehicle: saline.
[8] abbreviates: dose: 200.0 mg/kg/injection, schedule: Q01DX009 (ip), vehicle: saline with Tween-80.
Setting [9] is: dose: 6.25 mg/kg/injection, schedule: Q01DX009 (ip), vehicle: saline with Tween-80.
The mark [10] stands for this setting: dose: 100.0 mg/kg/injection, schedule: Q01DX001 (ip), vehicle: saline.
[11] abbreviates: dose: 200.0 mg/kg/injection, schedule: Q01DX001 (ip), vehicle: saline.
[12] abbreviates: dose: 100.0 mg/kg/injection, schedule: Q01DX009 (ip), vehicle: Klucel (hydroxypropylcellulose) (HPC).
Where [13] appears, read: dose: 200.0 mg/kg/injection, schedule: Q01DX009 (ip), vehicle: Klucel (hydroxypropylcellulose) (HPC).
Where [14] appears, read: dose: 37.5 mg/kg/injection, schedule: Q01DX009 (ip), vehicle: saline.
Where [15] appears, read: dose: 75.0 mg/kg/injection, schedule: Q01DX009 (ip), vehicle: saline.
[16] abbreviates: dose: 150.0 mg/kg/injection, schedule: Q01DX009 (ip), vehicle: saline.
[17] abbreviates: dose: 75.0 mg/kg/injection, schedule: Q01DX001 (ip), vehicle: saline.
[18] abbreviates: dose: 100.0 mg/kg/injection, schedule: Q04DX002 (ip), vehicle: saline.
Where [19] appears, read: dose: 200.0 mg/kg/injection, schedule: Q04DX002 (ip), vehicle: saline.
[20] abbreviates: dose: 100.0 mg/kg/injection, schedule: Q04DX003 (ip), vehicle: saline with Tween-80.
Setting [21] is: dose: 200.0 mg/kg/injection, schedule: Q04DX003 (ip), vehicle: saline with Tween-80.
Where [22] appears, read: dose: 400.0 mg/kg/injection, schedule: Q04DX003 (ip), vehicle: saline with Tween-80.
Where [23] appears, read: dose: 100.0 mg/kg/injection, schedule: Q01DX009 (ip), vehicle: saline with Tween-80.

As to `O=NN(CCF)C(=O)NC1CCC(NC(=O)N(CCF)N=O)CC1` (stereo not drawn), the T/C is, setting by setting: (dose: 3.13 mg/kg/injection, schedule: Q01DX009 (ip), vehicle: saline with Tween-80) 117 % of control; under setting [1], 240 % of control; under setting [2], 273 % of control and 289 % of control; under setting [3], 234 % of control.

On to `CNCCc1ccc(O)c(O)c1`, for which the T/C under setting [4] is 100 % of control.

For the compound `CCC[CH2][Sn]([CH2]CCC)[CH2]CCC.CCC[CH2][Sn]([CH2]CCC)[CH2]CCC`, the T/C by setting is: (dose: 12.5 mg/kg/injection, schedule: Q04DX003 (ip), vehicle: Klucel (hydroxypropylcellulose) (HPC)) 93 % of control; (dose: 25.0 mg/kg/injection, schedule: Q04DX003 (ip), vehicle: saline) 97 % of control; (dose: 50.0 mg/kg/injection, schedule: Q04DX003 (ip), vehicle: saline) 97 % of control.

Take `NNC(=O)CCCCC(=O)NN`: the T/C under setting [5] is 97 % of control, the T/C under setting [6] is 100 % of control and the T/C under setting [7] was 99 % of control.

For the compound `C=CCc1ccc(OC(=O)Nc2ccc(C)c([N+](=O)[O-])c2)c(OC)c1`, the T/C under setting [1] was 98 % of control, the T/C under setting [2] was 103 % of control, the T/C under setting [3] is 98 % of control and the T/C under setting [8] is 88 % of control.

Take `O=CC(Br)C(Br)c1ccccc1` (stereo not drawn): the T/C under setting [9] was 98 % of control; the T/C (dose: 6.25 mg/kg/injection, schedule: Q04DX003 (ip), vehicle: saline with Tween-80) is 113 % of control; the T/C under setting [1] is 98 % of control; the T/C (dose: 12.5 mg/kg/injection, schedule: Q04DX003 (ip), vehicle: saline with Tween-80) was 98 % of control; the T/C under setting [2] is 104 % of control; the T/C (dose: 25.0 mg/kg/injection, schedule: Q04DX003 (ip), vehicle: saline with Tween-80) was 102 % of control and 104 % of control. For the same compound, the T/C (dose: 50.0 mg/kg/injection, schedule: Q01DX009 (ip), vehicle: other) is 111 % of control.

`CCCCCCCCC(=O)N1CCCCC1`: the T/C runs as follows: under setting [5], 101 % of control; under setting [6], 102 % of control; under setting [7], 96 % of control.

Take `O=c1[nH]c(-c2ccccc2)nc(-c2ccccc2)c1Cc1cc2c(cc1O)OCC2`: the T/C under setting [10] was 103 % of control; the T/C under setting [11] was 92 % of control; the T/C (dose: 400.0 mg/kg/injection, schedule: Q01DX001 (ip), vehicle: saline) was 92 % of control.

For the compound `O=C(O)/C=C\c1ccc(OC(=O)c2ccccc2)cc1`, the T/C is, setting by setting: (dose: 50.0 mg/kg/injection, schedule: Q01DX009 (ip), vehicle: Klucel (hydroxypropylcellulose) (HPC)) 96 % of control; under setting [12], 93 % of control; under setting [13], 93 % of control.

Regarding `NCCSC1(O)C(=O)c2ccccc2-c2ccccc21` (stereo not drawn), the T/C under setting [14] is 100 % of control, the T/C under setting [15] is 101 % of control and the T/C under setting [16] was 91 % of control.

Regarding `COc1cc2c(cc1OC)C(N)CCC2` (stereo not drawn), the T/C was 97 % of control (dose: 12.5 mg/kg/injection, schedule: Q01DX009 (ip), vehicle: water); 103 % of control (dose: 25.0 mg/kg/injection, schedule: Q01DX009 (ip), vehicle: water); 98 % of control (dose: 50.0 mg/kg/injection, schedule: Q01DX009 (ip), vehicle: water); 105 % of control (dose: 100.0 mg/kg/injection, schedule: Q01DX009 (ip), vehicle: water).

`ICC(CI)(CI)CI`: the T/C is 100 % of control (dose: 100.0 mg/kg/injection, schedule: Q01DX001 (ip), vehicle: saline with Tween-80); 93 % of control (dose: 200.0 mg/kg/injection, schedule: Q01DX001 (ip), vehicle: saline with Tween-80); 100 % of control (dose: 400.0 mg/kg/injection, schedule: Q01DX001 (ip), vehicle: saline with Tween-80).

For `CC(C(N)=O)C1CCC2(C)CCC(=O)C(C)C2C1O` (stereo not drawn), the T/C (dose: 100.0 mg/kg/injection, schedule: Q04DX002 (ip), vehicle: saline with Tween-80) was 104 % of control; the T/C (dose: 200.0 mg/kg/injection, schedule: Q04DX002 (ip), vehicle: saline with Tween-80) was 120 % of control; the T/C (dose: 400.0 mg/kg/injection, schedule: Q04DX002 (ip), vehicle: saline with Tween-80) was 120 % of control.

On to `Cc1ccnc(N/C=C/c2cc[n+](C)cc2)c1`, for which the T/C runs as follows: under setting [17], 105 % of control; (dose: 150.0 mg/kg/injection, schedule: Q01DX001 (ip), vehicle: saline) 111 % of control; under setting [4], 114 % of control.

As to `OCC(O)c1ccccc1` (stereo not drawn), the T/C was 97 % of control under setting [18]; 101 % of control under setting [19]; 104 % of control (dose: 400.0 mg/kg/injection, schedule: Q04DX002 (ip), vehicle: saline).

As for `[O-]/[N+](=C\c1ccccc1)c1ccccc1`, the T/C is, setting by setting: under setting [20], 97 % of control; under setting [21], 90 % of control.

Take `N#CSCc1c(Cl)c(Cl)c(CSC#N)c(Cl)c1Cl`: the T/C runs as follows: (dose: 75.0 mg/kg/injection, schedule: Q04DX003 (ip), vehicle: saline) 95 % of control; (dose: 150.0 mg/kg/injection, schedule: Q04DX003 (ip), vehicle: saline) 98 % of control; (dose: 300.0 mg/kg/injection, schedule: Q04DX003 (ip), vehicle: saline) 98 % of control.

For the compound `CCC(O)C[As](=O)(O)c1ccc(Cl)cc1` (stereo not drawn), the T/C (dose: 0.38 mg/kg/injection, schedule: Q01DX009 (ip), vehicle: water) is 98 % of control; the T/C (dose: 0.78 mg/kg/injection, schedule: Q01DX009 (ip), vehicle: water) was 98 % of control; the T/C (dose: 1.5 mg/kg/injection, schedule: Q01DX009 (ip), vehicle: water) was 94 % of control.

For the compound `CC(C)(C)CC(C)(C)c1ccc(O)c(Cl)c1`, the T/C reads like this: under setting [20], 96 % of control; under setting [21], 100 % of control; under setting [22], 106 % of control.

For the compound `COc1cc(/C=N/NC(=O)c2cccs2)cc(OC)c1OC`, the T/C under setting [20] was 98 % of control, the T/C under setting [21] was 93 % of control and the T/C under setting [22] was 88 % of control.

Turning to `NN1CCCCC1`, the T/C under setting [18] is 103 % of control and the T/C under setting [19] is 95 % of control.

`Cc1cc(I)cs1`: the T/C reads like this: under setting [10], 108 % of control; under setting [11], 102 % of control.

Consider `CC(C(=O)O)C1(O)CCCCC1` (stereo not drawn), for which the T/C (dose: 5.0 mg/kg/injection, schedule: Q01DX009 (ip), vehicle: saline with Tween-80) was 101 % of control; the T/C (dose: 10.0 mg/kg/injection, schedule: Q01DX009 (ip), vehicle: saline with Tween-80) is 95 % of control; the T/C (dose: 20.0 mg/kg/injection, schedule: Q01DX009 (ip), vehicle: saline with Tween-80) was 90 % of control.

Regarding `CCOC(=O)C(=O)Nc1cc(C)ccc1C`, the T/C under setting [9] is 96 % of control, the T/C under setting [1] is 95 % of control and the T/C under setting [2] was 98 % of control.

In the case of `C/C(=N\Nc1nc2ccccc2s1)c1ccc2c(c1)Sc1ccccc1O2`, the T/C reads like this: under setting [14], 92 % of control; under setting [15], 95 % of control; under setting [16], 98 % of control.

Turning to `CC(Br)C(=O)NC(Cc1ccccc1)C(=O)O` (stereo not drawn), the T/C was 101 % of control under setting [23]; 97 % of control under setting [8]; 97 % of control (dose: 400.0 mg/kg/injection, schedule: Q01DX009 (ip), vehicle: saline with Tween-80).

As for `COc1cccc(CCNc2ccncc2N)c1`, under setting [17], the T/C is 96 % of control.

Turning to `CN(C)c1ccc(/C=C2\CCC/C(=C\c3ccc(N(C)C)cc3)C2=O)cc1`, the T/C was 95 % of control under setting [12]; 101 % of control under setting [13]; 95 % of control (dose: 400.0 mg/kg/injection, schedule: Q01DX009 (ip), vehicle: Klucel (hydroxypropylcellulose) (HPC)).

In the case of `CCCOS(=O)(=O)c1ccc(Cl)c([N+](=O)[O-])c1`, the T/C is, setting by setting: under setting [3], 97 % of control; under setting [23], 90 % of control; under setting [20], 94 % of control; under setting [21], 89 % of control.
